Laboratory results taken from patent US20090286744A1, “Treatment of asthma” (IMMUNEREGEN BIOSCINECES INC., priority 2005, published 2009).
Ends that are not written are not given here.

System: PARP-1
Assay: Immunoblotting for PARP-1 in alveolar macrophages pre-treated with JP-8 and substance P
Type: cell-based
Details: PAM pre-treated with 8 ug/ml of JP-8 and substance P; 24 hours; immunoblotting (FIG. 1)
Experimental: Alveolar macrophages (PAM) were pre-treated with 8 ug/ml of JP-8 and substance P, or left untreated. After 24 hours, protein was extracted from the PAM and analyzed by immunoblotting for PARP-1, procaspase-3, p53, and GAPDH.

Substance: Substance P (RPKPQQFFGLM-NH2; listed as Homo sapiens)
- PARP-1 expression in alveolar macrophages: causes degradation of PARP-1 expression in alveolar macrophages in a dose-dependent manner
